System: GBA mutant human fibroblasts GM008760
Test: Glucosylceramide lowering assay
Type: cell-based
Details: 10 μM test compound, 4 days culture, GlcCer (C16:0)/Cer (C16:0) molar ratio of test compound group relative to DMSO control group x100, smaller value = glucosylceramide lowering; for activity at 10 µM: Homo sapiens, Fibroblast, 96 h
Protocol: Glucosylceramide Lowering Assay
Using GBA mutant human fibroblasts containing mutated glucosylceramidase, the effect of test compounds on glucosylceramide reduction was evaluated.
GBA mutant human fibroblasts GM008760 (Coriel Institute) were seeded in a 96-well multiwell plate at a density of 5,000 cells/100 μL culture solution/well. GlutaMAX (Thermo Fishcer Scientific), penicillin-streptomycin, and Minimum Essential Media (Thermo Fishcer Scientific) supplemented with 15% fetal bovine serum were used as a culture solution. After culturing for 2 days, a 10 mM DMSO solution of the test compound diluted with the culture solution was added to a 96-well plate by 100 μL to adjust a final test compound concentration to 10 μM. After culturing the cells for 4 days in the presence of the test compound, the culture solution was removed, and the cells adhered to the 96-well plate were washed with a phosphate buffer (ThermoFisher Scientific, product number 14190-144). A solvent composed of 50% ethanol and 50% isopropanol was added to the 96-well plate by 100 μL, and the intracellular lipids were dissolved by pipetting. A solution prepared by dissolving N-Octadecanoyl-D35-psychosine (50 ng/mL, Matreya LLC Inc.) as an internal standard in 50% ethanol and 50% isopropanol was added to the sample in an equal volume, and 2.5 μL of the centrifuged supernatant was used as the test compound group.
In the same manner as above, a control group was prepared by using DMSO instead of the 10 mM DMSO solution of the test compound.
For the test compound group and the control group, molar concentrations of glucosylceramide [GlcCer (C16:0)] and ceramide [Cer (C16:0)] were quantified using Rapidfire-MS/MS (API-5000, Turbo-ESI, SRM), and the glucosylceramide lowering effect of the test compound group relative to the control group was evaluated by the following formula. (GlcCer/Cer of test compound group)/(GlcCer/Cer of control group)×100 wherein GlcCer/Cer is the ratio of the molar concentration of glucosylceramide to that of ceramide.
In this test, when the numerical value obtained by the above calculation formula is small, glucosylceramide is metabolized to ceramide by the test compound, or the synthesis of glucosylceramide from ceramide is inhibited by the test compound, that is, it can be said that the test compound has a glucosylceramide lowering effect.

| SMILES | activity at 10 µM [%] | 10 μM GlcCer/Cer (% of control) |
| --- | --- | --- |
| Cc1cn(C)c(=O)c2c(C(=O)N3CC4CC4(c4ccc(Cl)cc4)C3)cnn12 (centres unmarked) [Example 304, 3-((1-(4-chlorophenyl)-3-azabicyclo[3.1.0]hex-3-yl)carbonyl)-5,7-dimethylpyrazolo[1,5-a]pyrazin-4(5H)-one] | 64 |  |
| Cc1cn(C)c(=O)c2c(C(=O)N3CC4CC4(c4ccccc4OC(F)(F)F)C3)cn(C)c12 (centres unmarked) [Example 151, 1,5,7-trimethyl-3-((1-(2-(trifluoromethoxy)phenyl)-3-azabicyclo[3.1.0]hex-3-yl)carbonyl)-1,5-dihydro-4H-pyrrolo[3,2-c]pyridin-4-one] | 46 |  |
| Cc1cn(C)c(=O)c2c(C(=O)N3C[C@@H]4C[C@]4(c4ccc(Cl)c(Cl)c4)C3)cn(C)c12 [Example 206, 3-(((1S,5R)-1-(3,4-dichlorophenyl)-3-azabicyclo[3.1.0]hex-3-yl)carbonyl)-1,5,7-trimethyl-1,5-dihydro-4H-pyrrolo[3,2-c]pyridin-4-one] | 49 |  |
| Cc1cn(C)c(=O)c2c(C(=O)N[C@H]3CCCC[C@H]3c3ccccc3)cn(C)c12 (racemic) [Example 113, 1,5,7-trimethyl-4-oxo-N-[rac-(1S,2S)-2-phenylcyclohexyl]-4,5-dihydro-1H-pyrrolo[3,2-c]pyridine-3-carboxamide] | 41 |  |
| Cc1cn(C)c(=O)c2c(C(=O)N[C@H]3CCC[C@H]3c3ccccc3)cn(C)c12 (racemic) [Example 111, 1,5,7-trimethyl-4-oxo-N-[rac-(1S,2S)-2-phenylcyclopentyl]-4,5-dihydro-1H-pyrrolo[3,2-c]pyridine-3-carboxamide] | 61 |  |
| Cc1cn(C)c(=O)c2c(C(=O)N3CC4CC4(c4cc(Cl)ccc4Cl)C3)cn(C)c12 (centres unmarked) [Example 123, 3-((1-(2,5-dichlorophenyl)-3-azabicyclo[3.1.0]hex-3-yl)carbonyl)-1,5,7-trimethyl-1,5-dihydro-4H-pyrrolo[3,2-c]pyridin-4-one] | 47 |  |
| Cc1cn(C)c(=O)c2c(C(=O)N3CC4CC4(c4ccc(OC(F)(F)F)cc4)C3)cnn12 (centres unmarked) [Example 309, 5,7-dimethyl-3-((1-(4-(trifluoromethoxy)phenyl)-3-azabicyclo[3.1.0]hex-3-yl)carbonyl)pyrazolo[1,5-a]pyrazin-4(5H)-one] |  | 44 % of control |
| Cc1cn(C)c(=O)c2c(C(=O)N3C[C@H]4C[C@@]4(c4ccc(Cl)c(Cl)c4)C3)cn(C)c12 [Example 205, 3-(((1R,5S)-1-(3,4-dichlorophenyl)-3-azabicyclo[3.1.0]hex-3-yl)carbonyl)-1,5,7-trimethyl-1,5-dihydro-4H-pyrrolo[3,2-c]pyridin-4-one] | 62 |  |
| CCCCO[C@H]1CC[C@H](NC(=O)c2nn(C)c3c(C)cn(C)c(=O)c23)CC1 [Example 277, N-(trans-4-butoxycyclohexyl)-1,5,7-trimethyl-4-oxo-4,5-dihydro-1H-pyrazolo[4,3-c]pyridine-3-carboxamide] | 77 |  |
| Cc1cn(C)c(=O)c2c(C(=O)NC3(c4cccc(Cl)c4)CCC3)cn(C)c12 [Example 227, N-(1-(3-chlorophenyl)cyclobutyl)-1,5,7-trimethyl-4-oxo-4,5-dihydro-1H-pyrrolo[3,2-c]pyridine-3-carboxamide] | 59 |  |
| Cc1cn(C)c(=O)c2c(C(=O)N3CC4CC4(c4ccc(Cl)c(C(F)(F)F)c4)C3)cn(C)c12 (centres unmarked) [Example 141, 3-((1-(4-chloro-3-(trifluoromethyl)phenyl)-3-azabicyclo[3.1.0]hex-3-yl)carbonyl)-1,5,7-trimethyl-1,5-dihydro-4H-pyrrolo[3,2-c]pyridin-4-one] | 47 |  |
| Cc1cn(C)c(=O)c2c(C(=O)Nc3ccc(C#N)cn3)cn(C)c12 [Example 40, N-(5-cyanopyridin-2-yl)-1,5,7-trimethyl-4-oxo-4,5-dihydro-1H-pyrrolo[3,2-c]pyridine-3-carboxamide] | 62 |  |
| Cc1cn(C)c(=O)c2c(C(=O)N3CCC(F)(c4ccc(Cl)cc4)C3)cn(C)c12 (centres unmarked) [Example 168, 3-((3-(4-chlorophenyl)-3-fluoropyrrolidin-1-yl)carbonyl)-1,5,7-trimethyl-1,5-dihydro-4H-pyrrolo[3,2-c]pyridin-4-one] | 40 |  |
| Cc1cn(C)c(=O)c2c(C(=O)N3CC4CC4(c4cc(Cl)cc(Cl)c4)C3)cn(C)c12 (centres unmarked) [Example 122, 3-((1-(3,5-dichlorophenyl)-3-azabicyclo[3.1.0]hex-3-yl)carbonyl)-1,5,7-trimethyl-1,5-dihydro-4H-pyrrolo[3,2-c]pyridin-4-one] | 54 |  |
| Cn1cc(C(=O)NC(C)(C)c2ccc(Cl)cc2)c2c(=O)n(CC#N)ccc21 [Example 296, N-(2-(4-chlorophenyl)propan-2-yl)-5-(cyanomethyl)-1-methyl-4-oxo-4,5-dihydro-1H-pyrrolo[3,2-c]pyridine-3-carboxamide] | 52 |  |
| Cc1cn(C)c(=O)c2c(C(=O)Nc3ccccc3OCc3ccccc3)n(C)nc12 [Example 282, N-(2-(benzyloxy)phenyl)-2,5,7-trimethyl-4-oxo-4,5-dihydro-2H-pyrazolo[4,3-c]pyridine-3-carboxamide] | 66 |  |
| Cc1cn(C)c(=O)c2c(C(=O)N3CC4CC4(c4ccc(OC(F)(F)F)cc4)C3)cnn12 (centres unmarked) [Example 310, 5,7-dimethyl-3-((1-(4-(trifluoromethoxy)phenyl)-3-azabicyclo[3.1.0]hex-3-yl)carbonyl)pyrazolo[1,5-a]pyrazin-4(5H)-one] |  | 68 % of control |
| Cc1cn(C)c(=O)c2c(C(=O)N3CCC(Oc4ccc(C(F)(F)F)cc4)CC3)cn(C)c12 [Example 190, 1,5,7-trimethyl-3-((4-(4-(trifluoromethyl)phenoxy)piperidin-1-yl)carbonyl)-1,5-dihydro-4H-pyrrolo[3,2-c]pyridin-4-one] | 29 |  |
| Cc1cn(C)c(=O)c2c(C(=O)N3CC4CC4(c4ccc(Cl)c(Cl)c4)C3)cn(C)c12 (centres unmarked) [Example 120, 3-((1-(3,4-dichlorophenyl)-3-azabicyclo[3.1.0]hex-3-yl)carbonyl)-1,5,7-trimethyl-1,5-dihydro-4H-pyrrolo[3,2-c]pyridin-4-one] | 50 |  |
| Cc1cn(C)c(=O)c2c(C(=O)N3CCC4(c5cccc(Cl)c5)C(C3)C4(F)F)cn(C)c12 (centres unmarked) [Example 155, 3-((6-(3-chlorophenyl)-7,7-difluoro-3-azabicyclo[4.1.0]hept-3-yl)carbonyl)-1,5,7-trimethyl-1,5-dihydro-4H-pyrrolo[3,2-c]pyridin-4-one] | 53 |  |
| Cc1ccc(C23CN(C(=O)c4cn(C)c5c(C)cn(C)c(=O)c45)CC2C3(F)F)cc1 (centres unmarked) [Example 146, 3-((6,6-difluoro-1-(4-methylphenyl)-3-azabicyclo[3.1.0]hex-3-yl)carbonyl)-1,5,7-trimethyl-1,5-dihydro-4H-pyrrolo[3,2-c]pyridin-4-one] | 65 |  |
| COc1ccccc1-n1cc(C)c2c(c(C(=O)Nc3ccccc3)cn2C)c1=O [Example 108, 5-(2-methoxyphenyl)-1,7-dimethyl-4-oxo-N-phenyl-4,5-dihydro-1H-pyrrolo[3,2-c]pyridine-3-carboxamide] | 67 |  |
| Cc1cn(C)c(=O)c2c(C(=O)N3CCC(Oc4ccc(OC(F)(F)F)cc4)CC3)cnn12 [Example 303, 5,7-dimethyl-3-((4-(4-(trifluoromethoxy)phenoxy)piperidin-1-yl)carbonyl)pyrazolo[1,5-a]pyrazin-4(5H)-one] | 60 |  |

— patent US11459325B2, “Heterocyclic compound” (Takeda Pharmaceutical Company Limited, priority 2018, dated 2022)
